Assay in all cases: cells
Parameters in all cases: Cell growth inhibition, sulforhodamine B total protein staining

In one assay the test system is K562. Particulars: Homo sapiens, K562; 72 h growth; read-out: Cell growth inhibition IC50/µM. Here is the method: (§1) Cell panel profiling A panel of 94 cell lines was exposed to Glupin for 72 h to assess the influence on cell growth (Oncolead, Germany). Cell growth was determined using sulforhodamine B assay. Measurements were performed using a total protein staining protocol. Briefly, after treatement cells were fixed addition of 10% TCA (for adherent growing cells) or 50% TCA (for semi-adherent growing cells or cells growing in suspension). After an incubation at 4°C for 1 h, plates were washed twice with 400 μl of deionized water and dried. Cells were then stained with 100 μl of 0.04% wt/v sulforhodamine B. Plates were incubated at room temperature for at least 30 min and washed six times with 1% acetic acid to remove unbound stain. […] This effect was much stronger at a physiological glucose concentration (5 mM; Figure 5 b,c). […] IC50 values lower than 300 nM were obtained for more than 20 cell lines, whereas 24 cell lines were not affected by the compound, among them the peripheral blood mononuclear control cells (PBMCs). Sensitivity to Glupin was detected across various tissue types (Table S6).

The next assay concerns UMUC3. Conditions: Homo sapiens, UMUC3; 72 h growth; read-out: Cell growth inhibition IC50/µM. Here is the method:
as §1

Another assay concerns JAR. Particulars: 72 h growth; read-out: Cell growth inhibition IC50/µM. Here is the method:
as §1

In another assay the test system is PBMC. Conditions: PBMC; 72 h growth; read-out: Cell growth inhibition IC50/µM. Here is the method: as §1
The next assay has as its system HS729. Conditions: 72 h growth; read-out: Cell growth inhibition IC50/µM. Here is the method: as §1
A further assay concerns SKBR3. Conditions: Homo sapiens, SK-BR-3; 72 h growth; read-out: Cell growth inhibition IC50/µM. Here is the method:
as §1

A further assay has as its system HS578T. Conditions: Homo sapiens, Hs-578T; 72 h growth; read-out: Cell growth inhibition IC50/µM. Here is the method:
as §1

For the next assay, the system named is OVCAR4. Conditions: Homo sapiens, OVCAR-4; 72 h growth; read-out: Cell growth inhibition IC50/µM. Here is the method:
as §1

For the next assay, the system named is MV411. Particulars: Homo sapiens, MV4-11; 72 h growth; read-out: Cell growth inhibition IC50/µM. Here is the method: as §1
The next assay relates to HELA. Conditions: Homo sapiens, HeLa; 72 h growth; read-out: Cell growth inhibition IC50/µM. Here is the method:
as §1

The subject of a further assay is JIMT1. Conditions: Homo sapiens, JIMT-1; 72 h growth; read-out: Cell growth inhibition IC50/µM. Here is the method:
as §1

The test system of the next assay is 786O. Conditions: Homo sapiens, 786-0; 72 h growth; read-out: Cell growth inhibition IC50/µM. Here is the method: as §1
A further assay has as its system SF268. Conditions: Homo sapiens, SF-268; 72 h growth; read-out: Cell growth inhibition IC50/µM. Here is the method:
as §1

For another assay, the system named is A673. Particulars: Homo sapiens, A673; 72 h growth; read-out: Cell growth inhibition IC50/µM. Here is the method: as §1
A further assay relates to U2OS. Particulars: Homo sapiens, U2OS; 72 h growth; read-out: Cell growth inhibition IC50/µM. Here is the method:
as §1

The test system of the next assay is UO31. Particulars: Homo sapiens, UO-31; 72 h growth; read-out: Cell growth inhibition IC50/µM. Here is the method: as §1
For another assay, the system named is HT29. Particulars: Homo sapiens, HT-29; 72 h growth; read-out: Cell growth inhibition IC50/µM. Here is the method: as §1
The next assay relates to EFO21. Particulars: Homo sapiens, EFO-21; 72 h growth; read-out: Cell growth inhibition IC50/µM. Here is the method: as §1
A further assay relates to MT3. Particulars: MT-3; 72 h growth; read-out: Cell growth inhibition IC50/µM. Here is the method:
as §1

Another assay concerns SAOS2. Particulars: Homo sapiens, SAOS-2; 72 h growth; read-out: Cell growth inhibition IC50/µM. Here is the method:
as §1

For a further assay, the system named is A375. Particulars: Homo sapiens, A-375; 72 h growth; read-out: Cell growth inhibition IC50/µM. Here is the method:
as §1

The next assay deals with MHHES1. Particulars: Homo sapiens, MHH-ES-1; 72 h growth; read-out: Cell growth inhibition IC50/µM. Here is the method: as §1
A further assay deals with NCIH82. Conditions: Homo sapiens, NCI-H82; 72 h growth; read-out: Cell growth inhibition IC50/µM. Here is the method:
as §1

The structures appear in SMILES notation. Bounds are passed on as bounds.

Regarding `CCOC(=O)Cn1c2c(c3ccccc31)C[C@@H]1C[C@H]2C(OC)CN1C(=O)c1cccnc1SC` (single isomer, unassigned; (+)) [(+)-5a, Glupin], the IC50 was 0.137 µM with K562; 0.032 µM in the assay on UMUC3; 0.886 µM in the assay with JAR; > 30 µM with PBMC; > 30 µM with HS729; > 30 µM in the assay on SKBR3. In addition, the IC50 was 0.12 µM in the assay on HS578T; 1.41 µM with OVCAR4; > 30 µM in the assay on MV411; 1.25 µM with HELA; 0.113 µM with JIMT1; 0.274 µM in the assay on 786O. Moreover, the IC50 is 0.37 µM in the assay with SF268; 3.64 µM in the assay on A673; 0.502 µM with U2OS; 0.109 µM with UO31; 3.35 µM with HT29; > 30 µM in the assay with EFO21. Besides, the IC50 in the assay with MT3 was 2.54 µM; with SAOS2, > 30 µM; in the assay with A375, 0.659 µM; with MHHES1, 1.49 µM; in the assay with NCIH82 it was 1.17 µM.

These data come from PMC6900016, “Synthesis of Indomorphan Pseudo‐Natural Product Inhibitors of Glucose Transporters GLUT‐1 and ‐3” (Angewandte Chemie (International Ed. in English), 2019).
